The numbers were not newly measured in patent publication US11007501B2, “Reduced permeability microcapsules” (Trucapsol LLC, priority 2018, dated 2021), which cites them from elsewhere.

For Nonalactone, the “Octanol/water Partition Coefficient (logP)” value is reported as 1.3.

Turning to Violiff, the “Octanol/water Partition Coefficient (logP)” value is 2.11.
